According to patent US7799819B2, “7-Amido-isoindolyl compounds and their pharmaceutical uses” (Celgene Corporation, priority 2003, dated 2010):

- melting point: 107 to 109 °C
Structure (SMILES): CCOc1cc([C@@H](CC(=O)NOC(=O)C(C)C)N2Cc3cccc(NC(=O)C4CC4)c3C2=O)ccc1OC [Example 25, (1R)-Cyclopropanecarboxylic acid {2-[1-(3-ethoxy-4-methoxy-phenyl)-2-isobutyryloxycarbamoyl-ethyl]-3-oxo-2,3-dihydro-1H-isoindol-4-yl}-amide]
